pIC50: −log10 of the molar value. Like-named read-outs stand apart in the source and are kept apart here.
Test system: Lox-IMVI melanoma cell line
Test: Lox-IMVI anti-proliferative assay (growth inhibition, Cell Titer-Glo)
Type: cell-based, human
Conditions: Homo sapiens
Method in brief: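 Lox-IMVI cells in RPMI+10% FBS exposed 72 h at 37 °C to 10-point, 3-fold dilutions (0.5 nM–10 μM; 0.2% DMSO final), in duplicate. Viability by Cell Titer-Glo luminescence, with a t0 cell-number reading; data as % of DMSO control; IC50 from a four-parameter logistic fit.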

[1] = Lox-IMVI anti-proliferative assay, IC50 activity level, read-out: Activity
[2] = IC50 activity level in the cell-based Lox-IMVI anti-proliferative assay, read-out: Activity
[3] = Lox-IMVI melanoma cell line, anti-proliferative assay, read-out: Activity (IC50 activity level)

Structure (SMILES)	pIC50 [2]	further results
C[C@]1(O)CCC[C@@H](Nc2ncc3nc(Nc4c(Cl)cc(F)cc4Cl)n([C@H]4CC[C@@H](C(N)=O)CC4)c3n2)C1 [Example 428, (1S,4s)-4-(8-(2,6-dichloro-4-fluorophenylamino)-2-((1R,3S)-3-hydroxy-3-methylcyclohexylamino)-9H-purin-9-yl)cyclohexanecarboxamide]	–	pIC50 [1]: < 6.00
NC(=O)[C@H]1CC[C@@H](n2c(Nc3ccc(Cl)cc3F)nc3cnc(NC4CCOCC4)nc32)CC1 [Example 60, (1s,4s)-4-(8-(4-chloro-2-fluorophenylamino)-2-(tetrahydro-2H-pyran-4-ylamino)-9H-purin-9-yl)cyclohexanecarboxamide]	6.00 to 6.30	–
C[C@H](CO)Nc1ncc2nc(Nc3c(F)cc(Cl)cc3F)n([C@H]3CC[C@@H](C(N)=O)CC3)c2n1 [Example 132, (1S,4s)-4-(8-(4-chloro-2,6-difluorophenylamino)-2-((R)-1-hydroxypropan-2-ylamino)-9H-purin-9-yl)cyclohexanecarboxamide]	< 6.00	–
Cc1cccc(F)c1Nc1nc2cnc(NC3CCOCC3)nc2n1[C@H]1CC[C@@H](C(N)=O)CC1 [Example 63, (1s,4s)-4-(8-(2-fluoro-6-methylphenylamino)-2-(tetrahydro-2H-pyran-4-ylamino)-9H-purin-9-yl)cyclohexanecarboxamide]	< 6.00	–
CC(C)(C)OC(=O)N1CCC[C@@H](Nc2ncc3nc(Nc4c(F)cc(F)cc4Cl)n([C@H]4CC[C@@H](C(N)=O)CC4)c3n2)C1 [Example 161, (R)-tert-butyl 3-(9-((1s,4S)-4-carbamoylcyclohexyl)-8-(2-chloro-4,6-fluorophenylamino)-9H-purin-2-ylamino)piperidine-1-carboxylate]	< 6.00	–
NC(=O)[C@H]1CC[C@@H](n2c(Nc3c(F)cc(Cl)cc3F)nc3cnc(N[C@@H]4CCCC[C@H]4O)nc32)CC1 [Example 467, (1S,4s)-4-(8-(4-chloro-2,6-difluorophenylamino)-2-((1R,2R)-2-hydroxycyclohexylamino)-9H-purin-9-yl)cyclohexanecarboxamide]	–	pIC50 [1]: < 6.00
C[C@@H](CO)Nc1ncc2nc(Nc3c(F)cc(F)cc3Cl)n([C@H]3CC[C@@](C)(C(N)=O)CC3)c2n1 [Example 548, (1R,4s)-4-(8-(2-chloro-4,6-difluorophenylamino)-2-((S)-1-hydroxypropan-2-ylamino)-9H-purin-9-yl)-1-methylcyclohexanecarboxamide]	–	pIC50 [1]: > 6.60
NC(=O)[C@H]1CC[C@@H](n2c(Nc3c(Cl)cc(F)cc3Cl)nc3cnc(NC4CCCOCC4)nc32)CC1 (some centres unmarked) [Example 541, (1s,4s)-4-(8-(2,6-dichloro-4-fluorophenylamino)-2-(oxepan-4-ylamino)-9H-purin-9-yl)cyclohexanecarboxamide]	–	pIC50 [1]: 6.00 to 6.30
N#Cc1cc(F)c(Nc2nc3cnc(N[C@H]4CCCC[C@H](O)C4)nc3n2[C@H]2CC[C@@H](C(N)=O)CC2)c(Cl)c1 [Example 448, (1R,4s)-4-(8-(2-chloro-4-cyano-6-fluorophenylamino)-2-((1S,3S)-3-hydroxycycloheptylamino)-9H-purin-9-yl)cyclohexanecarboxamide]	–	pIC50 [1]: < 6.00
C[C@]1(C(N)=O)CC[C@@H](n2c(Nc3c(F)cc(C#N)cc3Cl)nc3cnc(N[C@H]4CCC[C@@H](O)C4)nc32)CC1 [Example 633, (1R,4s)-4-(8-(2-chloro-4-cyano-6-fluorophenylamino)-2-((1S,3R)-3-hydroxycyclohexylamino)-9H-purin-9-yl)-1-methylcyclohexanecarboxamide]	–	pIC50 [3]: 6.00 to 6.30
NC(=O)[C@H]1CC[C@@H](n2c(Nc3c(F)cccc3Cl)nc3cnc(NC4CC(F)(F)C4)nc32)CC1 [Example 225, (1s,4s)-4-(8-(2-chloro-6-fluorophenylamino)-2-(3,3-difluorocyclobutylamino)-9H-purin-9-yl)cyclohexanecarboxamide]	< 6.00	–
CS(=O)(=O)N1CCC(Nc2ncc3nc(Nc4c(F)cccc4Cl)n([C@H]4CC[C@@H](C(N)=O)CC4)c3n2)CC1 [Example 114, (1s,4s)-4-(8-(2-chloro-6-fluorophenylamino)-2-(1-(methylsulfonyl)piperidin-4-ylamino)-9H-purin-9-yl)cyclohexanecarboxamide]	< 6.00	–
NC(=O)[C@H]1CC[C@@H](n2c(Nc3c(F)cc(F)cc3F)nc3cnc(N[C@@H]4CC[C@@H](O)C4)nc32)CC1 [Example 207, (1S,4s)-4-(2-((1R,3R)-3-hydroxycyclopentylamino)-8-(2,4,6-trifluorophenylamino)-9H-purin-9-yl)cyclohexanecarboxamide]	< 6.00	–
COC(=O)N1CCC[C@@H](Nc2ncc3nc(Nc4c(Cl)cc(C#N)cc4Cl)n([C@H]4CC[C@@H](C(N)=O)CC4)c3n2)C1 [Example 708, (R)-methyl 3-(9-((1s,4S)-4-carbamoylcyclohexyl)-8-(2,6-dichloro-4-cyanophenylamino)-9H-purin-2-ylamino)piperidine-1-carboxylate]	–	pIC50 [3]: 6.30 to 6.60
NC(=O)[C@H]1CC[C@@H](n2c(Nc3c(Cl)cc(Cl)cc3Cl)nc3cnc(NC4CCCOCC4)nc32)CC1 (some centres unmarked) [Example 539, (1s,4s)-4-(2-(oxepan-4-ylamino)-8-(2,4,6-trichlorophenylamino)-9H-purin-9-yl)cyclohexanecarboxamide]	–	pIC50 [1]: > 6.60
C[C@H](CO)Nc1ncc2nc(Nc3c(Cl)cc(F)cc3Cl)n([C@H]3CC[C@@H](C(N)=O)CC3)c2n1 [Example 131, (1S,4s)-4-(8-(2,6-dichloro-4-fluorophenylamino)-2-((R)-1-hydroxypropan-2-ylamino)-9H-purin-9-yl)cyclohexanecarboxamide]	< 6.00	–
NC(=O)[C@H]1CC[C@@H](n2c(Nc3cc(F)c(Cl)cc3F)nc3cnc(N[C@@H]4CCC[C@H]4O)nc32)CC1 [Example 265, (1S,4s)-4-(8-(4-chloro-2,5-difluorophenylamino)-2-((1R,2R)-2-hydroxycyclopentylamino)-9H-purin-9-yl)cyclohexanecarboxamide]	< 6.00	–
CC(C)Nc1ncc2nc(Nc3c(Cl)cc(Cl)cc3Cl)n([C@H]3CC[C@@H](C(N)=O)CC3)c2n1 [Example 59, (1s,4s)-4-(2-(isopropylamino)-8-(2,4,6-trichlorophenylamino)-9H-purin-9-yl)cyclohexanecarboxamide]	6.00 to 6.30	–
NC(=O)[C@H]1CC[C@@H](n2c(Nc3c(F)cc(Cl)cc3F)nc3cnc(N[C@H]4C[C@@H](O)C4)nc32)CC1 [Example 322, (1s,4s)-4-(8-(4-chloro-2,6-difluorophenylamino)-2-((1s,3s)-3-hydroxycyclobutylamino)-9H-purin-9-yl)cyclohexanecarboxamide]	< 6.00	–
NC(=O)[C@H]1CC[C@@H](n2c(Nc3ccc(Cl)c(F)c3Cl)nc3cnc(NC4CCOCC4)nc32)CC1 [Example 82, (1s,4s)-4-(8-(2,4-dichloro-3-fluorophenylamino)-2-(tetrahydro-2H-pyran-4-ylamino)-9H-purin-9-yl)cyclohexanecarboxamide]	< 6.00	–
NC(=O)[C@H]1CC[C@@H](n2c(Nc3cccc(F)c3F)nc3cnc(NC4CCCC4)nc32)CC1 [Example 139, (1s,4s)-4-(2-(cyclopentylamino)-8-(2,3-difluorophenylamino)-9H-purin-9-yl)cyclohexanecarboxamide]	< 6.00	–
N#Cc1cc(Cl)c(Nc2nc3cnc(NC4CCC(N5C(=O)CCC5=O)CC4)nc3n2[C@H]2CC[C@@H](C(N)=O)CC2)c(Cl)c1 (some centres unmarked) [Example 668, (1s,4s)-4-(8-(2,6-dichloro-4-cyanophenylamino)-2-(4-(2,5-dioxopyrrolidin-1-yl)cyclohexylamino)-9H-purin-9-yl)cyclohexanecarboxamide]	–	pIC50 [3]: < 6.00
C[C@]1(C(N)=O)CC[C@@H](n2c(Nc3c(F)cc(F)cc3Cl)nc3cnc(NC4CC(F)(F)C4)nc32)CC1 [Example 579, (1s,4s)-4-(8-(2-chloro-4,6-difluorophenylamino)-2-(3,3-difluorocyclobutylamino)-9H-purin-9-yl)-1-methylcyclohexanecarboxamide]	–	pIC50 [1]: > 6.60
NC(=O)[C@H]1CC[C@@H](n2c(Nc3ccc(Cl)cc3Cl)nc3cnc(N[C@@H]4CC[C@@H](O)C4)nc32)CC1 [Example 219, (1S,4s)-4-(8-(2,4-dichlorophenylamino)-2-((1R,3R)-3-hydroxycyclopentylamino)-9H-purin-9-yl)cyclohexanecarboxamide]	< 6.00	–
NC(=O)[C@H]1CC[C@@H](n2c(Nc3c(Cl)cc(F)cc3Cl)nc3cnc(NC4CCCC4)nc32)CC1 [Example 121, (1s,4s)-4-(2-(cyclopentylamino)-8-(2,6-dichloro-4-fluorophenylamino)-9H-purin-9-yl)cyclohexanecarboxamide]	6.00 to 6.30	–

Second part, led by results:

pIC50 [2]	Structure (SMILES)	further results
6.00 to 6.30	N#Cc1cc(F)c(Nc2nc3cnc(NC4CCC(F)(F)CC4)nc3n2[C@H]2CC[C@@H](C(N)=O)CC2)c(F)c1 [Example 396, (1s,4s)-4-(8-(4-cyano-2,6-difluorophenylamino)-2-(4,4-difluorocyclohexylamino)-9H-purin-9-yl)cyclohexanecarboxamide]	–
< 6.00	NC(=O)[C@H]1CC[C@@H](n2c(Nc3c(F)ccc(Cl)c3F)nc3cnc(N[C@H]4CCC[C@@H](O)C4)nc32)CC1 [Example 377, (1R,4s)-4-(8-(3-chloro-2,6-difluorophenylamino)-2-((1S,3R)-3-hydroxycyclohexylamino)-9H-purin-9-yl)cyclohexanecarboxamide]	–
< 6.00	CC1(C)CC[C@@H](Nc2ncc3nc(Nc4c(F)cccc4Cl)n([C@H]4CC[C@@H](C(N)=O)CC4)c3n2)C[C@H]1O [Example 384, (1S,4s)-4-(8-(2-chloro-6-fluorophenylamino)-2-((1R,3R)-3-hydroxy-4,4-dimethylcyclohexylamino)-9H-purin-9-yl)cyclohexanecarboxamide]	–
< 6.00	NC(=O)[C@H]1CC[C@@H](n2c(Nc3c(F)cccc3Cl)nc3cnc(N[C@H]4CC[C@H](O)C4)nc32)CC1 [Example 325, (1R,4s)-4-(8-(2-chloro-6-fluorophenylamino)-2-((1S,3S)-3-hydroxycyclopentylamino)-9H-purin-9-yl)cyclohexanecarboxamide]	–
